# Tested on: human myeloma cell line MM.1S
# Test: SILAC acetylated-lysine peptide profiling, HDAC inhibitor vs DMSO (light/heavy ratio)
# Assay type: cell-based
# Text: An embodiment of the invention comprises utilizing the SILAC method in order to quantitate changes in protein expression between two or more populations of cells. The SILAC method is a technique based on mass spectrometry that detects differences in protein abundance among samples using non-radioactive isotopic labeling. The SILAC method is known in the art, and described in detail in Ong et al., “Stable Isotope Labeling by Amino Acids in Cell Culture, SILAC, as a Simple and Accurate Approach to Expression Proteomics”, Molecular & Cellular Proteomics, vol. 1, pp. 376-386 (2002), which is incorporated herein by reference in its entirety.
# Briefly, the SILAC method involves growing two populations of cells in cell culture. The first population of cells is grown in growth media containing normal amino acids (“normal media”). The second population of cells is grown in media lacking a standard essential amino acid (such as lysine), but is then supplemented with a non-radioactive, isotopically labeled form of that essential amino acid (such as lysine labeled with ^13C atoms, rather than normal ^12C atoms), which is called “heavy media”. When the two populations of cells are each growing in the medium, they incorporate the amino acids into all of their proteins. The growth of cells maintained in the heavy media is no different from that in normal media. All peptides containing the heavy amino acids are heavier than their normal counterparts. The cells from each of the two populations of cells are lysed. The lysates from each of the two cell populations are then combined. The combined cell lysates are then analyzed by mass spectrometry. Pairs of chemically identical peptides of different stable isotope composition can be differentiated in a mass spectrometer due to their difference in mass. The ratio of peak intensities in the mass spectrum for such peptide pairs reflects the abundance ratio for the two proteins.
# This example describes SILAC studies that were performed to compare the effects of three different HDAC inhibitors (Compound A, Compound B, and tubastatin A) to a control on a human multiple myeloma cell line. The HDAC inhibitors were also compared amongst themselves to determine differences in their effects.
# A human myeloma cell line MM.1S was grown using either ^12C (light) or ^13C (heavy) lysine containing culture medium. The “heavy” cells were treated with DMSO as the control, and the “light” cells were treated with a single HDAC inhibitor at 37° C. for 6 hours. The heavy and light cells were lysed, and the lysates were mixed in 1:1 ratio and digested with the protease trypsin. The acetylated lysine containing peptides (due to the action of the HDAC inhibitor) in the digested peptide pool were captured by a non-specific anti-acetylated lysine antibody cocktail (the antibodies identify both light and heavy acetylated peptides), and subjected to mass spectrometry analysis in order to identify thousands of individual peptides.
# Thousands of peptides were identified in pairs (^12C and ^13C) due to their known mass differences. The amino acid sequence and quantitative ratio (Light/Heavy) of a given peptide in two differentially treated cell lysates were then determined and annotated with their possible protein (gene) sources.
# As stated above, three HDAC inhibitors (Compound A, Compound B, and Tubastatin A) were used. Thus, the SILAC method was performed three times, with a different HDAC inhibitor compared to a control each time. Accordingly, there are three pairs of quantitative data in the table below, i.e., Compound A:DMSO, Compound B:DMSO, and Tubastatin A:DMSO. A cut-off of 1.30 fold of change (increase or decrease) was then used to determine “changed” or “+” in the table, and any peptides with a fold of change less than 1.3 fold were determined to be “unchanged” or “0” in the table. Those peptides that were not identified were marked as “NA” in the table. […]
smiles,measurement,setting,value
"O=C(CCCCCCNC(=O)c1cnc(N(c2ccccc2)c2ccccc2)nc1)NO [Compound A, 2-(diphenylamino)-N-(7-(hydroxyamino)-7-oxoheptyl)pyrimidine-5-carboxamide]",L/H ratio of acetylated peptide (ac)[…](ac)AAK (SEQ ID NO: 6),"VDAC3 [12], log 2 scale, drug vs DMSO",0.00
same,L/H ratio of acetylated peptide YK(ac)[…] (SEQ ID NO: 117),"VDAC3 [63], log 2 scale, drug vs DMSO",0.00
same,"light to heavy ratio (L/H ratio) of acetylated peptide, log 2 scale","VGIVGK(ac)YGTR (SEQ ID NO: 250), 60S ribosomal protein L37a [13], RPL37A",−0.44
same,L/H ratio of acetylated peptide TNEK(ac)VELQELNDR (SEQ ID NO: 122),"VIM [104], log 2 scale, drug vs DMSO",0.00
same,L/H ratio of acetylated peptide FANYIDK(ac)VR (SEQ ID NO: 118),"VIM [120], log 2 scale, drug vs DMSO",0.00
same,L/H ratio of acetylated peptide […](ac)GQGK (SEQ ID NO: 119),"VIM [139], log 2 scale, drug vs DMSO",0.00
same,L/H ratio of acetylated peptide SK(ac)[…] (SEQ ID NO: 121),"VIM [294], log 2 scale, drug vs DMSO",0.00
same,L/H ratio of acetylated peptide LQDEIQNMK(ac)EEMAR (SEQ ID NO: 120),"VIM [373], log 2 scale, drug vs DMSO",0.00
same,light to heavy ratio (L/H ratio) of acetylated peptide […](ac)QLFR (SEQ ID NO: 321),"Vesicle-trafficking protein SEC22b [38], SEC22B, drug:DMSO",1.00 log 2
same,"light to heavy ratio (L/H ratio), log 2 scale, acetylated peptide EK(ac)LQEEMLQR (SEQ ID NO: 762)","Vimentin [188], gene VIM, drug:DMSO",0.92
same,light to heavy ratio (L/H ratio) of acetylated peptide TLLIK(ac)TVETR (SEQ ID NO: 269),"Vimentin [445], VIM, drug:DMSO",0.45 log 2
same,light to heavy ratio (L/H ratio) of acetylated peptide IAAYK(ac)SILQER (SEQ ID NO: 531),"X-ray repair cross-complementing protein 5 [265], gene XRCC5, inhibitor:DMSO",−0.41 log 2
same,light to heavy ratio (L/H ratio) of acetylated peptide EEAIK(ac)FSEEQR (SEQ ID NO: 509),"X-ray repair cross-complementing protein 5 [648], gene XRCC5, inhibitor:DMSO",−0.60 log 2
same,light to heavy ratio (L/H ratio) of acetylated peptide FNNFLK(ac)ALQEK (SEQ ID NO: 545),"X-ray repair cross-complementing protein 5 [660], gene XRCC5, inhibitor:DMSO",0.39 log 2
same,light to heavy ratio (L/H ratio) of acetylated peptide […](ac)HFQD (SEQ ID NO: 355),"X-ray repair cross-complementing protein 6 [605], XRCC6, drug:DMSO",0.00 log 2
same,L/H ratio of acetylated peptide ALQEK(ac)VEIK (SEQ ID NO: 123),"XRCC5 [665], log 2 scale, drug vs DMSO",0.00
same,"light to heavy ratio (L/H ratio) of acetylated peptide, log 2 scale","YNCDK(ac)MICR (SEQ ID NO: 254), Ubiquitin-605 ribosomal protein L40 [93], UBA52",0.38
same,light to heavy ratio (L/H ratio) of acetylated peptide YFLDK(ac)TLTSR (SEQ ID NO: 293),"[3-methyl-2-oxobutanoate dehydrogenase [lipoamide]] kinase mitochondrial [192], BCKDK, drug:DMSO",0.68 log 2
same,L/H ratio of acetylated peptide,"[…](ac)MVAAK (SEQ ID NO: 491), Cyclic AMP-dependent transcription factor ATF-4 [267], ATF4",−1.00 log 2
same,L/H ratio of acetylated peptide,"[…](ac)YPLR (SEQ ID NO: 493), Isoform 1 of NADH-cytochrome b5 reductase 3 [42], CYB5R3",−1.00 log 2
same,light to heavy ratio (L/H ratio) of acetylated peptide SAYFAEK(ac)LYK (SEQ ID NO: 292),"annexin A4 [255], ANXA4, drug:DMSO",0.67 log 2
same,light to heavy ratio (L/H ratio) of acetylated peptide TLFVK(ac)[…] (SEQ ID NO: 511),"cDNA FLJ45706 fis clone FEBRA2028457 highly similar to Nucleolin [470], gene NCL, inhibitor:DMSO",−0.59 log 2
same,light to heavy ratio (L/H ratio) of acetylated peptide ILMSK(ac)PVLSGGTGR (SEQ ID NO: 291),"cDNA FLJ55380 highly similar to Protein kinase C-binding protein 1 [440], ZMYND8, drug:DMSO",0.67 log 2
same,light to heavy ratio (L/H ratio) of acetylated peptide YDGK(ac)WEVEEMK (SEQ ID NO: 274),"cDNA FLJ55574 highly similar to Calnexin [138], CANX, drug:DMSO",0.48 log 2
same,light to heavy ratio (L/H ratio) of acetylated peptide LNK(ac)PFLFDTK (SEQ ID NO: 327),"cDNA FLJ55574 highly similar to Calnexin [172], CANX, drug:DMSO",0.00 log 2
same,light to heavy ratio (L/H ratio) of acetylated peptide LIGK(ac)QGR (SEQ ID NO: 629),"cDNA FLJ56047 highly similar to A kinase anchor protein 1 mitochondrial [667], gene AKAP1, inhibitor:DMSO",0.49 log 2
same,light to heavy ratio (L/H ratio) of acetylated peptide LLASK(ac)SLLNR (SEQ ID NO: 322),"cDNA FLJ56303 highly similar to Translocon-associated protein subunit beta [46], SSR2, drug:DMSO",1.00 log 2
same,light to heavy ratio (L/H ratio) of acetylated peptide LPSSTK(ac)SGWPR (SEQ ID NO: 500),"cDNA FLJ75110 highly similar to Homo sapiens PHD finger protein 15 (PHF15) mRNA [38], gene PHF15, inhibitor:DMSO",−0.78 log 2
same,light to heavy ratio (L/H ratio) of acetylated peptide IINEVSK(ac)[…] (SEQ ID NO: 341),"cDNA FLJ77177 highly similar to Homo sapiens arginine-rich mutated in early stage tumors (ARMET) mRNA [97], MANF, drug:DMSO",0.00 log 2
same,light to heavy ratio (L/H ratio) of acetylated peptide TNVPVK(ac)LFAR (SEQ ID NO: 348),"cDNA FLJ77422 highly similar to Homo sapiens RNA binding protein autoantigenic (hnRNP-associated with lethal yellow homolog (mouse)) transcript variant 1 mRNA (Fragment) [165], RALY, drug:DMSO",0.00 log 2
same,light to heavy ratio (L/H ratio) of acetylated peptide EIAQEFK(ac)TDLR (SEQ ID NO: 337),"histone cluster 2 H3 pseudogene 2 [80], HIST2H3PS2, drug:DMSO",0.00 log 2
same,light to heavy ratio (L/H ratio) of acetylated peptide GSK(ac)[…] (SEQ ID NO: 265),"membrane-associated progesterone receptor component 2 [159], PGRMC2, drug:DMSO",0.43 log 2
same,light to heavy ratio (L/H ratio) of acetylated peptide SK(ac)SDPIMLLK (SEQ ID NO: 255),"pyruvate dehydrogenase E1 component subunit alpha somatic form mitochondrial isoform 2 precursor [351], PDHA1, drug:DMSO",0.39 log 2
same,light to heavy ratio (L/H ratio) of acetylated peptide VTNLLMLK(ac)GK (SEQ ID NO: 350),"regulator of differentiation 1 isoform 2 [64], ROD1, drug:DMSO",0.00 log 2
same,light to heavy ratio (L/H ratio) of acetylated peptide LTSLNVK(ac)YNNDK (SEQ ID NO: 590),"regulator of differentiation 1 isoform 2 [236], gene ROD1, inhibitor:DMSO",0.44 log 2
same,light to heavy ratio (L/H ratio) of acetylated peptide GWLK(ac)[…] (SEQ ID NO: 278),"triosephosphate isomerase isoform 2 [231], TPI1, TPI1P1, drug:DMSO",0.54 log 2
